Assay results reported in US7109376B2, “Benzene and naphthylene derivatives and their use as UV screening agents” (DSM IP Assets B.V., priority 2001, dated 2006).

What was measured:
[1] = solvent Crodamol DA (diisopropyladipate)
[2] = irradiated in high dilution with a Hg-lamp 150 W (Heraeus)
[3] = solvent Cétiol LC (Cocoyl cyprylate caprate)

Compound	solubility in Crodamol DA [1]	photostability [2]	solubility in Cétiol LC [3]	mixability with conventional cosmetic solvents
CC(Cc1cccc2nc(-c3ccc(-c4nc5cccc(CC(C)C[Si](C)(C)O[Si](C)(C)C)c5o4)cc3)oc12)C[Si](C)(C)O[Si](C)(C)C (stereo not shown) [Example 3, 1,4-bis-[2-(7-{3-(1,1,3,3,3-pentamethyl-disiloxanyl)-1-isobutyl}-benzoxazol)-yl]-benzene]	5.03%	photostable		
CCCCC=CC(C)c1cccc2nc(-c3ccc(-c4nc5cccc(C(C)C=CCCCC)c5o4)cc3)oc12 (stereo not shown) [Example 9, 1,4-bis-[2-(7-oct-3-en-2-yl-benzoxazol)-yl]-benzene]		photostable	1.02%	
CCCCC=CC(C)c1cc(C)cc2nc(-c3ccc(-c4nc5cc(C)cc(C(C)C=CCCCC)c5o4)cc3)oc12 (stereo not shown) [Example 6, 1,4-bis-[2-(5-methyl-7-oct-3-en-2-yl-benzoxazol)-yl]-benzene]	1.33%	photostable		
CC(Cc1cc(C(C)(C)C)cc2nc(-c3ccc(-c4nc5cc(C(C)(C)C)cc(CC(C)C[Si](C)(O[Si](C)(C)C)O[Si](C)(C)C)c5o4)cc3)oc12)C[Si](C)(O[Si](C)(C)C)O[Si](C)(C)C (stereo not shown) [Example 5, 1,4-bis-[2-(5-tert.-butyl-7-{3-(1,3,3,3-tetramethyl-1-[(tri-methyl-silyl)-oxy]-disiloxanyl)-1-isobutyl}-benzoxazol)-yl]-benzene]		photostable	12.3%	
CC(C)(C)c1cc(CCC[Si](C)(C)O[Si](C)(C)C)c2oc(-c3ccc(-c4nc5cc(C(C)(C)C)cc(CCC[Si](C)(C)O[Si](C)(C)C)c5o4)cc3)nc2c1 [Example 2, 1,4-bis-[2-(5-tert.-butyl-7-{3-(1,1,3,3,3-pentamethyl-disiloxanyl)-1-propyl}-benzoxazol)-yl]-benzene]		photostable	18%	
C=CCc1cc(C(C)(C)C)cc2nc(-c3ccc(-c4nc5cc(C(C)(C)C)cc(CC=C)c5o4)cc3)oc12 [Example 1, 1,4-bis-[2-(5-tert.-butyl-7-allyl-benzoxazol)-yl]-benzene]		photostable	1.1%	
CCCCCCC(C)c1cc(C(C)(C)C)cc2nc(-c3ccc(-c4nc5cc(C(C)(C)C)cc(C(C)CCCCCC)c5o4)cc3)oc12 (stereo not shown) [Example 11, 1,4-bis-[2-(5-tert.-butyl-7-oct-2-yl-benzoxazol)-yl]-benzene]		photostable		easily mixable
CCCCC=CC(C)c1cc(C(C)(C)C)cc2nc(-c3ccc(-c4nc5cc(C(C)(C)C)cc(C(C)C=CCCCC)c5o4)cc3)oc12 (stereo not shown) [Example 8, 1,4-bis-[2-(5-tert.-butyl-7-oct-3-en-2-yl-benzoxazol)-yl]-benzene]		photostable		easily mixable
